Measured values as given in PubChem BioAssay AID624167 (Sanford-Burnham Center for Chemical Genomics, 2012).
The source made the active and inactive calls.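 The calls were made as follows: active = mean IC50 for reducing PEG3 promoter reporter signal at or below a set limit, with IC50 above the limit in both counter screens; inactive = the rest, including counter screen hits.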

Tests used:
[1] = biological target: PEG-3 (UniProt Q6IN02); experiment: inhibition of PEG-3 promoter-driven reporter – cell-based, HeLa, luciferase, CREF/GAPDH counter-screen panel, dose response (AID 624167); conditions: HeLa PEG-Prom luciferase reporter, overnight, CREF/GAPDH counter-screens, mean of runs
[2] = test system: PEG-3; experiment: as above; conditions: HeLa PEG-Prom luciferase reporter, overnight, CREF/GAPDH counter-screens
[3] = run 1, dose range 1, individual replicate IC50 per panel
[4] = run 2, dose range 1, individual replicate IC50 per panel

Chain of PEG-3 (UniProt Q6IN02) (Q6IN02 whole entry, looked up): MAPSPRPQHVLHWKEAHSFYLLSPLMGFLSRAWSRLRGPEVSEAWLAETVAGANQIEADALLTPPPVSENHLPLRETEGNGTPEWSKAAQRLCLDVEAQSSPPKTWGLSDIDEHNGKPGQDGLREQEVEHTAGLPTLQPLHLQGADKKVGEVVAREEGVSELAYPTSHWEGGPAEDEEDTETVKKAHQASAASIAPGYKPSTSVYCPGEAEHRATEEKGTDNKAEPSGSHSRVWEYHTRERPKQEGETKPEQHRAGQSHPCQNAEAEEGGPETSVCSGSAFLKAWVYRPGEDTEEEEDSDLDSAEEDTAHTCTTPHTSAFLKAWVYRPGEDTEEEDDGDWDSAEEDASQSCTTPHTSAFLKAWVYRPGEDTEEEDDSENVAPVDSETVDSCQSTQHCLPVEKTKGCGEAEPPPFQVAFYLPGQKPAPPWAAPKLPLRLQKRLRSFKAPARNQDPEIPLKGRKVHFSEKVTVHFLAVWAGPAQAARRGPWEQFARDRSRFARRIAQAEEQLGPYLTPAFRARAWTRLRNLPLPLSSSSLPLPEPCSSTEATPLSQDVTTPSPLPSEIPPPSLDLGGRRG

| Compound | IC50 [1] | IC50 [2, 3] [µM] | IC50 [2, 4] [µM] |
| --- | --- | --- | --- |
| CCN(CC)C(=O)Cn1cc(/C=C2\C(=O)NC(=O)N(c3ccccc3F)C2=O)c2ccccc21 | 14 µM | 14.9 | 13.1 |
| Cc1cc(C(=O)COC(=O)C2=COCCO2)c(C)n1-c1ccccc1 | 11.8 µM | 11.1 | 12.5 |
| CN1CCN(c2ccc(NC(=O)N3CCc4ccccc43)cc2)CC1 | inactive | 15 | 38.8 |
| CC(C)CC(N)c1csc(Nc2ccc(C(=O)N(C)Cc3ccccc3)cn2)n1 (stereo unspecified) | inactive | 14.2 | 29 |
| O=C(Cc1csc(Nc2nc(=S)[nH]c3ccccc23)n1)NCc1ccccc1Cl | > 100 µM (inactive) | > 100 | > 100 |
| Cc1cc(/C=c2/sc3nc4ccccc4n3c2=O)c(C)n1-c1ccccn1 | inactive | 21.7 | 30.9 |
| c1cncc(-c2nc(NCC3COc4ccccc4O3)c3ccccc3n2)c1 (stereo unspecified) | inactive | 20.1 | 38.6 |
| COc1ccc(-n2c(/C=C/c3ccc(O)c(OC)c3)nc3ccccc3c2=O)cc1 | 15.8 µM | 15.8 | 15.8 |
| Cc1cc(Sc2ncnc(N)c2[N+](=O)[O-])ncn1 | 15.2 µM | 18.7 | 11.7 |
| CC(Cc1ccccc1)NCCC(c1ccccc1)c1ccccc1 (stereo unspecified) | 19.5 µM | 19.9 | 19.1 |
| COc1cccc(-c2sc3ccc(OC)cc3c2-c2ccc(OCCN(C)C)cc2)c1 | 15.5 µM | 15.7 | 15.2 |
| COc1cc(NC(=O)c2c(F)c(F)c(F)c(F)c2F)c(OC)cc1Cl | 19.8 µM | 23.7 | 15.9 |
| CC(C(=O)NC1CCCC1)N(C(=O)Cn1nnc(-c2ccc(F)cc2)n1)c1ccccc1F (stereo unspecified) | inactive | 22.9 | 69.9 |
| O=C(Cn1ncc(Cl)c(Cl)c1=O)N1CCN(Cc2ccccc2)CC1 | 14 µM | 19.5 | 8.48 |
| NCCCNc1nc(N)c([N+](=O)[O-])c(NC2CCCCC2)n1 | 12.3 µM | 10.7 | 13.9 |
| CC(=O)c1cccc(NC(=O)c2cccc3c(-c4cccnc4)coc23)c1 | inactive | 25.6 | > 100 |
| CCn1cc(CN2CCC(C(=O)Nc3cccc(-c4cccc(Cl)c4)c3)CC2)cn1 | 16.8 µM | 19.3 | 14.4 |
| Cc1ccc2sc(N(CCCN(C)C)C(=O)c3ccc(S(=O)(=O)N4CCc5ccccc5C4)cc3)nc2c1C | 17.4 µM | 15.6 | 19.2 |
| COc1cc(NC(=O)c2cccc(C)c2)ccc1NC(=O)c1cc2ccccc2o1 | 19.3 µM | 12.9 | 25.6 |
| Cc1cc(-n2c(SCC(=O)Nc3ccc(F)c(F)c3)nc3n[nH]c(C)c3c2=N)ccc1Cl | inactive | 41 | 30.3 |
| COc1cc(CNC(C)(C)CO)cc(Br)c1OCc1ccc(Cl)cc1 | 16.6 µM | 20.6 | 12.6 |
| O=C(CCl)N1N=C(c2ccco2)CC1c1cccs1 (stereo unspecified) | inactive | 24.2 | 30.4 |
| Cc1ccc(-c2cc(C(=O)Nc3nccs3)c3ccccc3n2)c(C)c1 | inactive | 32.1 | > 100 |

| Compound | IC50 [1] | IC50 [2, 3] [µM] | IC50 [2, 4] [µM] |
| --- | --- | --- | --- |
| CC1CCCCN1C(=O)c1cccc(NC2=C(Cl)C(=O)N(Cc3ccccc3)C2=O)c1 (stereo unspecified) | inactive | 29.9 | 51.8 |
| COc1cc(/C=C2\SC(=S)N(CCC(=O)N3CCCCC3)C2=O)cc(OC)c1OC | inactive | 35.1 | 19.1 |
| COc1cc(-c2cc(C(=O)N(C)Cc3ccccc3)c3ccccc3n2)cc(OC)c1OC | inactive | 69.3 | 72.2 |
| COc1cc(/C=C/c2ccc3cccc(O)c3n2)c(Br)cc1O | inactive | 63.2 | 42.7 |
| CN(C)CCCNc1ncnc2oc(-c3ccccc3)c(-c3ccccc3)c12 | 15.7 µM | 16.6 | 14.8 |
| CN(C)CC1CCC/C(=C\c2ccc(OC(=O)/C=C/c3ccccc3)cc2)C1=O (stereo unspecified) | 14.6 µM | 21.8 | 7.3 |
| COc1ccc(-c2cc(C(=O)N(C)Cc3ccccc3F)c3ccccc3n2)cc1OC | inactive | 23.9 | 24.1 |
| COc1cccc(Nc2nc(C(N)C3CCCCC3)cs2)n1 (stereo unspecified) | inactive | 21.8 | 47.6 |
| Cc1c(C(=O)N2CCC3(CC2)OCCO3)sc2ncnc(N3CCN(c4ccccn4)CC3)c12 | inactive | 24 | 29 |
| C=CCN=C1NN=C(c2cc(C)n(CC=C)c2C)CS1 | 17.4 µM | 11.5 | 23.3 |
| Cc1nn(-c2ccccc2)c2c1C(c1ccc([N+](=O)[O-])cc1)N1C(=N2)C(=O)Nc2ccccc21 (stereo unspecified) | > 100 µM (inactive) | > 100 | > 100 |
| O=C1NC2C(=CC(O)C(O)C2O)c2cc3c(c(O)c21)OCO3 (stereo unspecified) | 0.293 µM | 0.293 | < 0.2 |
| CC(C)NC(=O)NC(=O)COC(=O)c1c2c(nc3ccccc13)CCC2 | inactive | 16.5 | 27.8 |
| CS(=O)(=O)c1ccc2nc(NC(=O)CCS(=O)(=O)c3ccccc3)sc2c1 | inactive | > 100 | 18.9 |
| O=C(CCCN1C(=O)/C(=C/c2ccccc2Cl)SC1=S)NNC(=O)c1ccccc1Cl | inactive | 26.4 | 22 |
| CC(=O)N1CCN(c2cc(-c3ccccc3)nc3cc(-c4cccc(Cl)c4)nn23)CC1 | inactive | 23.8 | 18.3 |
| CC(=O)OCCNc1cc(SCc2ccco2)c2nonc2c1[N+](=O)[O-] | inactive | 26.8 | 20.4 |
| COc1ccc(-c2cc(C(F)F)n3ncc(C(=O)n4ccnc4C)c3n2)cc1 | 12.5 µM | 18.3 | 6.84 |
| O=C(C(=O)N(Cc1ccccc1)Cc1ccccc1)c1c(-c2ccccc2)[nH]c2ccccc12 | inactive | > 100 | 7.5 |
| CCc1nc(Nc2ccc(N3CCN(C(C)=O)CC3)cc2)c2oc3ccccc3c2n1 | inactive | 28.1 | 94.9 |
| CCCc1ccc(C(=O)O/N=C(\N)c2ccccn2)cc1 | inactive | 36.5 | 16.6 |
| CC(=O)Nc1ccc(Nc2nc(C)c([N+](=O)[O-])c(Nc3ccccc3)n2)cc1 | inactive | 22.6 | > 100 |
| CCCC(=O)N1CCCC(c2cc(C(=O)Nc3ccccc3)no2)C1 (stereo unspecified) | 11.5 µM | 8.68 | 14.3 |

| Compound | IC50 [1] | IC50 [2, 3] [µM] | IC50 [2, 4] [µM] |
| --- | --- | --- | --- |
| CCCN(CC(=O)Nc1cc(Cl)cc(Cl)c1)CC(=O)Nc1ccc(F)c(F)c1F | inactive | 14.6 | 43.7 |
| N/C(=N\OC(=O)c1ccccc1)C(C(=O)NOC(=O)c1ccccc1)C1CCCCC1 (stereo unspecified) | inactive | 24.5 | > 100 |
| Cc1ccc(-c2nc(C(Cl)Cl)c3ccccc3n2)cc1 | inactive | > 100 | 9.67 |
| COc1ccc(NC(=O)Nc2nc(C(N)C3CCCCC3)cs2)cc1 (stereo unspecified) | 20 µM | 17.9 | 22.1 |
| Oc1ccc(C23CCCC2C2(CCCC2)c2ccc(O)cc2O3)c(O)c1 (stereo unspecified) | inactive | 27.2 | 54.4 |
| COc1ccc(-n2ncc3c(N(C)C4CCCCC4)ncnc32)cc1 | inactive | 26.5 | 44 |
| COC(=O)c1cc(=O)n(Cc2ccco2)c(=Nc2ccc(F)cc2)s1 | 17.8 µM | 17.6 | 17.9 |
| CN(C)CCNc1ncnc2c1sc1nc(N3CCCC3)c3c(c12)CC(C)(C)OC3 | inactive | 32.7 | 13.1 |
| CCN1CCN(Cc2ccc(NC(=O)c3cc(NC(=O)c4ccno4)cc(OC)c3)cc2C(F)(F)F)CC1 | inactive | 40.6 | 45.3 |
| N#Cc1c(N)nc(SCc2ccncc2)c(C#N)c1-c1cccs1 | 17.1 µM | 21.4 | 12.8 |
| CCCc1nc2oc3c(NCCCN(C)C)ncnc3c2c2c1CCCC2 | 14.7 µM | 19.5 | 9.84 |
| O=Cc1cn(Cc2ccc([N+](=O)[O-])cc2)c2ccccc12 | > 100 µM (inactive) | > 100 | > 100 |
| Cc1cc(C=C2C(=O)c3ccccc3C2=O)c(C)n1-c1ccccc1 | inactive | 39.6 | > 100 |
| O=C1/C(=C/c2ccccc2Cl)SC(=S)N1CCCC(=O)N(CCO)c1ccccc1 | 17.8 µM | 18.9 | 16.7 |
| Cc1c(C#N)c(N)nc2c3c(sc12)NC(=O)CC3c1ccc(Cl)cc1 (stereo unspecified) | 14.2 µM | 17.4 | 11 |
| CCCCCCCCNCCS(=O)(=O)NCc1ccc(OC)cc1 | 18 µM | 17.7 | 18.3 |
| Cc1ccsc1C(=O)OCC(=O)c1cc(C)n(CC2CCCO2)c1C (stereo unspecified) | 14.9 µM | 11.8 | 18 |
| CCCCCCCNC(=O)C1(CC2CC(c3ccccc3)=NO2)CCNCC1 (stereo unspecified) | inactive | 35.4 | 16.7 |
| CCOC(=O)c1ccc2ncc(C(=O)OCC)c(NCCN(C)C)c2c1 | inactive | 15 | 43.4 |
| O=c1cc2oc3cc(O)c(O)cc3c(-c3ccccc3[N+](=O)[O-])c-2cc1O | 19 µM | 19 | 19.1 |
| CC(=O)Nc1cccc(-c2ccnc3c2CC(C)(C(=O)Nc2cccc(C(F)(F)F)c2)O3)c1 (stereo unspecified) | inactive | 5.21 | > 100 |
